Experimental data as given in patent US10562935B2, “Stapled peptides and uses thereof” (London Health Sciences Centre Research Inc., priority 2015, dated 2020).
Bridges are numbered along the chain shown (N, C = ends).

Tests used:
[1] = Direct HA-binding ELISA of biotinylated peptides on HA coated plates (Example 4); design: key to HA binding: absorbance (color) read at 450 nm; settings: for HA binding: as repeated in tables 16, 18, 20; for HA direct binding (OD): optical density, summary tables 15, 17, 19
Experimental: Each of these peptides was biotinylated at its amino-terminus, and an AEEA spacer was included to separate the peptide sequence from the biotin molecule.
HA coated plates were purchased (ECHELON). Peptides were dissolved in 2 mM PBS to constant molarity, aliquoted and stored at −20° C. until used in assays. 7 kDa biotin-labeled RHAMM (SEQ ID NO: 1) was synthesized and used as a positive control in these assays. Biotin labeled peptides were added to the HA coated wells (n=3 replicates/peptide) at either 0.8 or 0.08 μM and then incubated with shaking overnight at 4° C. Wells were washed free of excess unbound peptides using 200 μl PBS (4 times). 100 μl of Streptavidin-HRP was then added to each well and the plate was incubated at room temperature for 1 hr. The plate was then washed with 200 μl PBS/well 4 times and TMB Liquid Substrate System for ELISA (Sigma) was added to each well, incubated for 5-10 min at room temperature and color read at 450 nm Plate Reader (BioTek, SYNERGY H4, Hybrid Reader).
Direct HA-binding results for the biotinylated equivalents of compounds 132 and 150-161 are show in FIG. 39, and results for compounds 265-268 and 275-278 are shown in FIG. 40.

[2] = system: RHAMM-overexpressing (LR21) cells; assay: Cell invasion assay (Boyden chamber with MATRIGEL, Chemicon ECM555); type: cell-based; settings: for inhibition of cellular invasion (in words): 10 ng/mL peptide, 20 hours, compared to 30% serum control; for Invasion (% inhib.): % inhibition relative to positive control, 10 ng/mL of peptide
Experimental: Compounds 132, 133, 135, 150-153, 156, 265-269, and 275-278 were evaluated for their ability to inhibit cellular invasion. Invasion assays were performed using Chemicon Assay Kits ECM555 (Invasion); Billerica, Mass., USA) according to the manufacturer's protocol. Invasion assays are performed in an identical manner as the migration assays described above in Example 5, except that cells are required to invade through a layer of extracellular matrix (MATRIGEL) coating the filter that separates the upper and lower Boyden chambers. Briefly, sub-confluent cultures of RHAMM-overexpressing (LR21) cells were serum starved overnight before plating 7.5×10^4 cells in the upper chamber of a Boyden chamber either in the presence or absence of 10 ng/mL of peptide. 30% fetal bovine serum in DMEM was used as the chemo-attractant in the lower chamber. The number of cells that had crossed the membrane after 20 hours was assessed using the CYQUANT® GR Dye and lysis buffer solution provided in the kit. Fluorescence was measured with a fluorescent plate reader using 480/520 nm filter set.
Values the mean and SDM of n=3 replicates. *p<0.05, **p<0.01, ***p<0.001 All statistics compared to 30% serum control. In FIG. 49, where bars are labeled with two compound numbers (“152/135”) this means that the data were pooled for the indicated compound, i.e., for the non-acetylated and acetylated versions of the indicated peptide.

[3] = Function blocking score: total percent inhibition over migration, invasion, inflammation and fibrosis assays divided by number of assays; type: cell-based; settings: total percent inhibition for all assays tested divided by number of assays
Experimental: As documented in the Examples hereinabove, a variety of cyclized peptides were produced that contained the HA-binding domain 1 (HABD1), HA-binding domain 2 (HABD2), or both HABD1 and HABD2. These peptides were evaluated for helicity, direct HA binding and in a number of cell-based bioassays (effects on migration, invasion, NFkB activation, and TGFβ1 production) that are relevant to inflammation and fibrosis. The relationships amongst helicity, HA-binding, and biofunction were evaluated. Peptides were divided into three groups for this analysis: (1) peptides containing HABD1 (“HABD1”); (2) peptides containing HABD2 (“HABD2”); and peptides containing most or all of HABD1 and all of HABD2 (“HABD1+HABD2”). R^2 values were calculated to quantify the relationships between helicity, HA-binding, and biofunction were evaluated.
The results of this analysis for the HABD1 peptides are shown below in Tables 15 and 16. Table 16 provides a function blocking scores for each of the tested peptides and provides R^2 values showing the relationship between HA binding and helicity (“HA binding vs. CD”), HA binding and function-blocking score (“HA binding vs. FBS”) and helicity vs. function-blocking score (“CD vs. FBS”). The same type of summaries are provided for the HABD2 peptides in Tables 17 and 18 below, and for the HABD1+HABD2 peptides in Tables 19 and 20 below.
Function blocking scores were calculated as the total percent inhibition achieved by the peptide for all assays the peptides were tested in, divided by the number of assays. Assays included migration, invasion, inflammation and fibrosis assays. Not all peptides were tested all of the assays. All peptides were included for deriving R^2 values (Pearson's formula).

HA binding [1] | HA direct binding (OD) [1] | Substance | inhibition of cellular invasion (in words) [2] | Invasion (% inhib.) [2] | Function blocking score (FBS) [3]
0.10 | 0.10 OD | Ac-KIKHVVKLKDENSQLKSEVSKLRSQLVKRK-NH2 [Compound 265] | significantly inhibited cellular invasion | 46 % inhib. | 28
0.24 | 0.24 OD | Ac-(cyclo-10-14, cyclo-15-19)-KIKHVVKLK[EENSK][EKSEK]SKLRSQLVKRK-NH2 (Ac-KIKHVVKLKEENSKEKSEKSKLRSQLVKRK-NH2; lactam 10-14, 15-19; SMILES CC[C@H](C)[C@H](NC(=O)[C@H](CCCCN)NC(C)=O)C(=O)N[C@@H](CCCCN)C(=O)N[C@@H](Cc1c[nH]cn1)C(=O)N[C@H](C(=O)N[C@H](C(=O)N[C@@H](CCCCN)C(=O)N[C@@H](CC(C)C)C(=O)N[C@@H](CCCCN)C(=O)N[C@H]1CCC(=O)NCCCC[C@@H](C(=O)N[C@H]2CCC(=O)NCCCC[C@@H](C(=O)N[C@@H](CO)C(=O)N[C@@H](CCCCN)C(=O)N[C@@H](CC(C)C)C(=O)N[C@@H](CCCNC(=N)N)C(=O)N[C@@H](CO)C(=O)N[C@@H](CCC(N)=O)C(=O)N[C@@H](CC(C)C)C(=O)N[C@H](C(=O)N[C@@H](CCCCN)C(=O)N[C@@H](CCCNC(=N)N)C(=O)N[C@@H](CCCCN)C(N)=O)C(C)C)NC(=O)[C@H](CCC(=O)O)NC(=O)[C@H](CO)NC(=O)[C@H](CCCCN)NC2=O)NC(=O)[C@H](CO)NC(=O)[C@H](CC(N)=O)NC(=O)[C@H](CCC(=O)O)NC1=O)C(C)C)C(C)C) [Compound 266] | significantly inhibited cellular invasion | 50 % inhib. | 28
0.02 | 0.02 OD | Ac-(cyclo-4,8)-NLK[EKIKK]VVKLKDE-NH2 (Ac-NLKEKIKKVVKLKDE-NH2; lactam 4-8; SMILES CC[C@H](C)[C@@H]1NC(=O)[C@H](CCCCN)NC(=O)[C@@H](NC(=O)[C@H](CCCCN)NC(=O)[C@H](CC(C)C)NC(=O)[C@H](CC(N)=O)NC(C)=O)CCC(=O)NCCCC[C@@H](C(=O)N[C@H](C(=O)N[C@H](C(=O)N[C@@H](CCCCN)C(=O)N[C@@H](CC(C)C)C(=O)N[C@@H](CCCCN)C(=O)N[C@@H](CC(=O)O)C(=O)N[C@@H](CCC(=O)O)C(N)=O)C(C)C)C(C)C)NC(=O)[C@H](CCCCN)NC1=O) [Compound 157] |  |  | 8.6
0.19 | 0.19 OD | Ac-(cyclo-10-14, cyclo-15-19)-KIKHVVKLK[KENSE][EKSEK]SKLRSQLVKRK-NH2 [Compound 269] |  | 0 % inhib. | 13
0.005 | 0.005 OD | Ac-(cyclo-5,9)-NLKQ[EIKHK]VKLKDE-NH2 (Ac-NLKQEIKHKVKLKDE-NH2; lactam 5-9; SMILES CC[C@H](C)[C@@H]1NC(=O)[C@@H](NC(=O)[C@H](CCC(N)=O)NC(=O)[C@H](CCCCN)NC(=O)[C@H](CC(C)C)NC(=O)[C@H](CC(N)=O)NC(C)=O)CCC(=O)NCCCC[C@@H](C(=O)N[C@H](C(=O)N[C@@H](CCCCN)C(=O)N[C@@H](CC(C)C)C(=O)N[C@@H](CCCCN)C(=O)N[C@@H](CC(=O)O)C(=O)N[C@@H](CCC(=O)O)C(N)=O)C(C)C)NC(=O)[C@H](Cc2c[nH]cn2)NC(=O)[C@H](CCCCN)NC1=O) [Compound 158] |  |  | 22
0.009 | 0.009 OD | Ac-(cyclo-6,10)-NLKQK[EKHVK]KLKDE-NH2 (Ac-NLKQKEKHVKKLKDE-NH2; lactam 6-10; SMILES CC(=O)N[C@@H](CC(N)=O)C(=O)N[C@@H](CC(C)C)C(=O)N[C@@H](CCCCN)C(=O)N[C@@H](CCC(N)=O)C(=O)N[C@@H](CCCCN)C(=O)N[C@H]1CCC(=O)NCCCC[C@@H](C(=O)N[C@@H](CCCCN)C(=O)N[C@@H](CC(C)C)C(=O)N[C@@H](CCCCN)C(=O)N[C@@H](CC(=O)O)C(=O)N[C@@H](CCC(=O)O)C(N)=O)NC(=O)[C@H](C(C)C)NC(=O)[C@H](Cc2c[nH]cn2)NC(=O)[C@H](CCCCN)NC1=O) [Compound 159] |  |  | 17
0.03 | 0.03 OD | Ac-VSKLRSQLVKRKQN-NH2 [Compound 132] | significantly inhibited cellular invasion | 66 % inhib. | 17
0.01 | 0.01 OD | Ac-(cyclo-5,9)-VSKL[ESQLK]KRKQN-NH2 (Ac-VSKLESQLKKRKQN-NH2; lactam 5-9; SMILES CC(=O)N[C@H](C(=O)N[C@@H](CO)C(=O)N[C@@H](CCCCN)C(=O)N[C@@H](CC(C)C)C(=O)N[C@H]1CCC(=O)NCCCC[C@@H](C(=O)N[C@@H](CCCCN)C(=O)N[C@@H](CCCNC(=N)N)C(=O)N[C@@H](CCCCN)C(=O)N[C@@H](CCC(N)=O)C(=O)N[C@@H](CC(N)=O)C(N)=O)NC(=O)[C@H](CC(C)C)NC(=O)[C@H](CCC(N)=O)NC(=O)[C@H](CO)NC1=O)C(C)C) [Compound 151] |  | 0 % inhib. | 20
0.01 | 0.01 OD | Ac-(cyclo-11-15, cyclo-16-20)-KIKHVVKLKD[ENSQK][ESEVK]KLRSQLVKRIK-NH2 [Compound 267] |  | 0 % inhib. | 0
0.009 | 0.009 OD | Ac-(cyclo-8,12)-NLKQKIK[EVVKK]KDE-NH2 (Ac-NLKQKIKEVVKKKDE-NH2; lactam 8-12; SMILES CC[C@H](C)[C@H](NC(=O)[C@H](CCCCN)NC(=O)[C@H](CCC(N)=O)NC(=O)[C@H](CCCCN)NC(=O)[C@H](CC(C)C)NC(=O)[C@H](CC(N)=O)NC(C)=O)C(=O)N[C@@H](CCCCN)C(=O)N[C@H]1CCC(=O)NCCCC[C@@H](C(=O)N[C@@H](CCCCN)C(=O)N[C@@H](CC(=O)O)C(=O)N[C@@H](CCC(=O)O)C(N)=O)NC(=O)[C@H](CCCCN)NC(=O)[C@H](C(C)C)NC(=O)[C@H](C(C)C)NC1=O) [Compound 161] |  |  | 22
0.004 | 0.004 OD | Ac-(cyclo-7,11)-NLKQKI[EHVVK]LKDE-NH2 (Ac-NLKQKIEHVVKLKDE-NH2; lactam 7-11; SMILES CC[C@H](C)[C@H](NC(=O)[C@H](CCCCN)NC(=O)[C@H](CCC(N)=O)NC(=O)[C@H](CCCCN)NC(=O)[C@H](CC(C)C)NC(=O)[C@H](CC(N)=O)NC(C)=O)C(=O)N[C@H]1CCC(=O)NCCCC[C@@H](C(=O)N[C@@H](CC(C)C)C(=O)N[C@@H](CCCCN)C(=O)N[C@@H](CC(=O)O)C(=O)N[C@@H](CCC(=O)O)C(N)=O)NC(=O)[C@H](C(C)C)NC(=O)[C@H](C(C)C)NC(=O)[C@H](Cc2c[nH]cn2)NC1=O) [Compound 160] |  |  | 0
